Reference: US6358883B1, “Pesticidal and parasiticidal use of 1-aryl-1-(substituted thio, sulfinyl and sulfonyl)-2-nitroethane compounds” (American Cyanamid Company, priority 1998, dated 2002)

Key:
Assay type in all cases: in vivo
[1] = tested on: Tetranychus urticae (OP-resistant strain), 2-spotted spider mite (TSM); experiment: 2-spotted spider mite (TSM) plant dip test; design: key: 0 = no effect; 1 = 10-25% kill; 2 = 26-35% kill; 3 = 36-45% kill; 4 = 46-55% kill; 5 = 56-65% kill; 6 = 66-75% kill; 7 = 76-85% kill; 8 = 86-99% kill; 9 = 100% kill; conditions: mortality after 2 days
Protocol: (§1) Test solutions are prepared by dissolving the test compound in a 35% acetone in water mixture to give a concentration of 10,000 ppm. Subsequent dilutions are made with water as needed.
Tetranychus urticae (OP-resistant strain), 2-spotted Spider Mite (TSM)
Sieva lima bean plants with primary leaves expanded to 7-8 cm are selected and cut back to one plant per pot. A small piece is cut from an infested leaf taken from the main colony and placed on each leaf of the test plants. This is done about 2 hours before treatment to allow the mites to move over to the test plant to lay eggs. The size of the cut, infested leaf is varied to obtain about 100 mites per leaf. At the time of test treatment, the piece of leaf used to transfer the mites is removed and discarded. The newly-infested plants are dipped in the test solution for 3 seconds with agitation and set in the hood to dry. After 2 days, one leaf is removed and mortality counts are made.

[2] = tested on: Spodoptera eridania, 2nd instar larvae, southern armyworm (SAW); experiment: Southern armyworm (SAW) leaf dip test; design: key: 0 = no effect; 1 = 10-25% kill; 2 = 26-35% kill; 3 = 36-45% kill; 4 = 46-55% kill; 5 = 56-65% kill; 6 = 66-75% kill; 7 = 76-85% kill; 8 = 86-99% kill; 9 = 100% kill
Protocol: as §1
Spodoptera eridania, 2nd Instar Larvae, Southern Armyworm (SAW)
A Sieva lima bean leaf expanded to 7-8 cm in length is dipped in the test solution with agitation for 3 seconds and allowed to dry in a hood. The leaf is then placed in a 100×10 mm petri dish containing a damp filter paper on the bottom and ten 2nd instar caterpillars. At 5 days, observations are made of mortality, reduced feeding, or any interference with normal molting.

[3] = tested on: Aphis gossypii, cotton aphid (CA); experiment: Cotton aphid (CA) cotyledon dip test; design: key: 0 = no effect; 1 = 10-25% kill; 2 = 26-35% kill; 3 = 36-45% kill; 4 = 46-55% kill; 5 = 56-65% kill; 6 = 66-75% kill; 7 = 76-85% kill; 8 = 86-99% kill; 9 = 100% kill; conditions: mortality after 5 days
Protocol: Test solutions are prepared by dissolving the test compound in a 35% acetone in water mixture to give a concentration of 10,000 ppm. Subsequent dilutions are made with water as needed. Aphis gossypii, Cotton Aphid (CA) Cotton plants at the cotyledon stage are selected and cut back to one plant per pot. A heavily infested leaf is taken from the main colony and placed on top of each cotyledon. The aphids are allowed to transfer to the host plant overnight. At the time of test treatment, the leaf used to transfer the aphids is removed and discarded. The cotyledons are dipped in the test solution and allowed to dry. After 5 days, mortality counts are made. [table]

[4] = tested on: C. elegans (Bristol strain); experiment: Evaluation of test compounds against C. elegans (motility, 96-well plate); design: key: 9=complete kill in 4 hours; 8=complete kill in 24 hours; 7=markedly reduced motility in approximately 95% of worms in 24 hours; 0=normal motility, same as controls; conditions: motility at 4 and 24 hours
Protocol: Evaluation of Test Compounds Against C. elegans Cultures of C. elegans (Bristol strain from J. Lewis) are maintained on E. coli lawns on NG Agar Plates at 20° C. New cultures are established weekly. Nematodes for testing are washed from cultures using Na buffer. Compounds are dissolved in 80% acetone. The test material is micropipetted (25 μl) into a single well of a 96-well sterile tissue culture plate and the solvent allowed to evaporate. A freshly prepared volume (50 μl) of C. elegans in Na buffer is micropipetted into each treated well and several control wells per plate. Plates are incubated at 20° C. Observations for efficacy are made under a dissecting microscope at 4 and 24 hours post-immersion. Immediately prior to reading the plate, it is gently tapped to stimulate the movement of the worms. Activity is judged subjectively, but semi-quantitatively, based on the drug effects on motility of the adults and larvae.

[5] = tested on: Diabrotica virgifera virgifera Leconte, 2nd instar western corn rootworm (WCR); experiment: Western corn rootworm (WCR) soil test; design: key: 0 = no effect; 1 = 10-25% kill; 2 = 26-35% kill; 3 = 36-45% kill; 4 = 46-55% kill; 5 = 56-65% kill; 6 = 66-75% kill; 7 = 76-85% kill; 8 = 86-99% kill; 9 = 100% kill
Protocol: Test solutions are prepared by dissolving the test compound in a 35% acetone in water mixture to give a concentration of 10,000 ppm. Subsequent dilutions are made with water as needed. Diabrotica virgifera virgifera Leconte, 2nd Instar Western Corn Rootworm (WCR) One cc of fine talc is placed in a 30 mL wide-mouth screw-top glass jar. One mL of the appropriate acetone test solution is pipetted onto the talc so as to provide 1.25 mg of active ingredient per jar. The jars are set under a gentle air flow until the acetone is evaporated. The dried talc is loosened, 1 cc of millet seed is added to serve as food for the insects and 25 mL of moist soil is added to each jar. The jar is capped and the contents thoroughly mixed mechanically. Following this, ten 2nd instar rootworms are added to each jar and the jars are loosely capped to allow air exchange for the larvae. The treatments are held for 5 days when mortality counts are made. Missing larvae are presumed dead, since they decompose rapidly and cannot be found. The concentrations of active ingredient used in this test correspond approximately to 50 kg/ha. [table]

[6] = tested on: M. incognita (Root Knot Nematode) larvae; experiment: Evaluation of test compounds against M. incognita larvae in microtiter plate wells (movement score); conditions: larvae scored for movement after 20-24 hours; also: key: A score of '9' indicates inactive worms with a straight, sticklike morphology; A score of '8' indicates inactive worms with a limp, curled or curved morphology; A score of '7' indicates dead/paralyzed worms after 72 hours
Protocol: Evaluation of Test Compounds Against M. incognita (Root Knot Nematode)
Newly emerged M. incognita larvae are suspended in S Medium (buffered salt solution) to a concentration of 50-65 worms per 50 μl. 50 μl of the worm suspension are pipetted into microtiter plate wells containing the test compounds. The plates are then covered with plactic plate sealers to reduce loss of volume by evaporation. After 20-24 hours of incubation, the larvae are scored for movement. Wells containing obviously dead/paralyzed larvae are scored as positive. […] A score of “7” indicates dead/paralyzed worms after […].

Structure (SMILES) | TSM (300 ppm) rating [1] | SAW (300 ppm) rating [2] | CA (300 ppm) rating [3] | Rating Against C. elegans (150 ppm) [4] | WCR (50 ppm) rating [5] | M. incognita (150 ppm) score [6]
O=C(O)CSC(C[N+](=O)[O-])c1ccc(F)cc1 (centres unmarked) [Example 63] | 0 | 0 | 0 | 9 | 0 | 9
O=C(O)CSC(C[N+](=O)[O-])c1ccc2c(c1)OCO2 (centres unmarked) [Example 64] | 9 (9 = 100% kill) | 0 | 0 | 9 | 0 | 9
Cc1ccc(C(C[N+](=O)[O-])SCC(=O)O)cc1 (centres unmarked) [Example 65] | 0 | 0 | 0 | 9 | 9 (9 = 100% kill) | 9
CC(C)c1ccc(C(C[N+](=O)[O-])SCC(=O)O)cc1 (centres unmarked) [Example 66] | 0 | 0 | 0 | 9 | 8 (8 = 86-99% kill) | 9
O=C(O)CSC(C[N+](=O)[O-])c1ccccc1F (centres unmarked) [Example 67] | 0 | 0 | 0 | 9 | 9 (9 = 100% kill) | 9
COc1cccc(C(C[N+](=O)[O-])SCC(=O)O)c1 (centres unmarked) [Example 68] | 0 | 0 | 0 | 8 | 3 (3 = 36-45% kill) | 9
COc1ccc(C(C[N+](=O)[O-])SCC(=O)O)cc1 (centres unmarked) [Example 69] | 0 | 0 | 0 | 9 | 0 | 9
COC(=O)CSC(C[N+](=O)[O-])c1ccc(Cl)cc1 (centres unmarked) [Example 70] | 0 | 0 | 0 | 7 | 0 | 9
CCOC(=O)CSC(C[N+](=O)[O-])c1ccc(Cl)cc1 (centres unmarked) [Example 71] | 0 | 0 | 0 | 7 | 0 | 0
CCCCOC(=O)CSC(C[N+](=O)[O-])c1ccc(Cl)cc1 (centres unmarked) [Example 72] | 0 | 0 | 0 | 0 | 0 | 0
CC(C)CCCCCOC(=O)CSC(C[N+](=O)[O-])c1ccc(Cl)cc1 (centres unmarked) [Example 73] | 0 | 0 | 0 | 0 | 0 | 0
CCCCC(CC)COC(=O)CSC(C[N+](=O)[O-])c1ccc(Cl)cc1 (centres unmarked) [Example 74] | 0 | 0 | 0 | 0 | 0 | 0
O=[N+]([O-])CC(SCc1ccccc1)c1ccc(Cl)cc1 (centres unmarked) [Example 75] | 0 | 0 | 0 | 0 | 0 | 0
CCCSC(C[N+](=O)[O-])c1ccc(Cl)cc1 (centres unmarked) [Example 76] | 0 | 0 | 0 | 7 | 0 | 0
C=CCSC(C[N+](=O)[O-])c1ccc(Cl)cc1 (centres unmarked) [Example 77] | 3 (3 = 36-45% kill) | 0 |  | 0 | 0 | 0
O=C(O)CSC(C[N+](=O)[O-])c1ccc(Cl)cc1 (centres unmarked) [Example 78] | 0 | 0 | 0 | 7 | 0 | 9
